Results on 3 compounds are retold here after patent US4997757A, “Process for detecting potential carcinogens” (GeneBioMed, Inc., priority 1988, dated 1991).

The nature of series [1]: survival of yeast exposed to agent. Format: cell-based, Saccharomyces cerevisiae. The text has this: It is preferred to conduct a preliminary experiment to determine those concentrations of the agent to be tested which should be evaluated in the main experiment. Yeast cells are exposed to a wide range of concentrations of the agent to be tested to determine its cytotoxicity.
(§1) It is preferred that, when the cells are to be grown in the presence of the agent, logarithmic phase cultures are used. In one embodiment, for each of the test strains, a cell suspension of 2×10^6 cells per milliliter-LEU medium be prepared from a logarithmic phase culture pregrown in liquid-LEU medium. The whole mix is aliquoted into portions of 5 milliliter into disposable plastic tubes in the presence of the agent to be tested, the tubes are sealed and shaken continuously for 17 hours.
(§2) The strain used in this example was RS112 which was obtained by crossing strain RSY6 with strain 428. RSY6 contains the SCC system and was deposited at November 30 under "ATCC designation number 20871" with the American Type Culture Collection of 12301 Parklawn Drive, Rockville, Md. 20852. Strain 428 was obtained from M. Snyder, Department of Biology, at Yale University, New Haven, Conn. and was used because it contains the mutation his3Δ-200, the construction of which has been described in an article by Struhl entitled "Naturally occurring poly(dA-dT) sequences are upstream promoter elements of constitutive transcription in yeast, published in Proc. Natl. Acad. Sci. USA 82 on pages 8419-8423. Strains containing the his3Δ-200 mutation are readily available to those skilled in the art.

A short description of series [2]: SCC (sister chromatid conversion) intrachromosomal recombination system, deletion alleles of his3. It is filed as cell-based, Saccharomyces cerevisiae. To be noted: yeast strain rs112; versus untreated control; read-out: induction for SCC / increase in SCC.
Excerpt: (§3) In the most preferred embodiment it is preferable to grow the cells in a medium which selects against the occurrence of the genome rearrangement to keep the control values as low as possible. In the embodiment described in FIG. 1 it is shown that the LEU2 gene of construct 10 is lost after the genome rearrangement which results in construct 22. Therefore cells containing construct 10, before the rearrangement are able to grow in the absence of leucine in the medium, but cells containing construct 22, after the genome rearrangement are not able to grow in the absence of leucine. After the genome rearrangement cells containing construct 22 are able to grow in the absence of histidine in the medium, but cells containing construct 10 before the genome rearrangement are not able to grow in the absence of histidine. Therefore the selection scheme which was used for Example 3 involves growth of the yeast culture in medium lacking leucine but containing histidine before and during the exposure to the potential carcinogens or other test agents. After the exposure the cells which have undergone genome rearrangement are selected on medium lacking histidine but containing leucine.
as §1
(§4) After the yeast cells have been exposed to both the agent to be tested and the selection medium under the conditions of the test and have been incubated for some time period of about more than one day preferably at 30 degrees Celsius or any other temperature which allows growth of the yeast cells used, the number of colonies formed by cells which have undergone genome rearrangement are counted and compared with the number of colonies of yeast cells identical in substantially every respect with the exception of not having been exposed to the suspected carcinogenic agent. The rates of genome rearrangement for both the control and experimental samples are then compared.
(§5) Plasmids were constructed as substrates to study intrachromosomal recombination; see an earlier part of the specification and Example 1. The plasmids pRS6 (FIG. 7, construct 108) and pRS11 (FIG. 9, construct 118) both contained an internal fragment of the HIS3 gene as well as one selectable marker (LEU2). pRS11 in addition contained the 2 μm origin of replication to select for the presence of the plasmid after plasmid excision. pRS11FRT-had the FLP recombination site disrupted (see Example 1). Yeast strains RSY6 containing construct 10, RSY11 containing construct 118 and RSY11FRT- (see Example 1) were used. They contained the respective pRS plasmids integrated into the HIS3 gene of strain S35/2-10C giving rise to disruptions of the HIS3 gene construct 10 or analogs to it (FIG. 10). The two resulting his3 deletion alleles (FIG. 10) shared about 400 basepairs of homology and thus could interact with each other by homologous recombination. Reversion of his- to HIS+ occurred at a frequency of about 4×10^-4 in all three strains. All of 100 tested HIS+ revertants of strain RSY6 were leu-. Because of this observation strains used for recombination studies were always pregrown on -LEU medium to prevent growth of HIS+ revertants. Therefore the frequency of HIS+ revertants is a measure of the recombination rate.
(§6) The strain used in this example was RS112 which was obtained by crossing strain RSY6 with strain 428. RSY6 contains the SCC system and was deposited at November 30 under "ATCC designation number 20871" with the American Type Culture Collection of 12301 Parklawn Drive, Rockville, Md. 20852. […]

Series [3] relates to strain RS112 (his3 deletion alleles). Described as above. As to conditions: for SCC/10^4 cells: strain RS112. Format: cell-based, Saccharomyces cerevisiae.
Excerpt: as §3, §1, §4, §5, §6

A further series deals with Salmonella typhimurium. To be noted: cited from earlier work.
The conditions of series [4]: cited from earlier work; for carcinogenicity: in vivo.
For series [5], the system named is strain RS112 (heteroalleles ade2-40 and ade2-101). The series can be described thus: ICC (interchromosomal gene conversion) between heteroalleles ade2-40 and ade2-101. It is filed as cell-based, Saccharomyces cerevisiae. As to conditions: for ICC/10^5 cells: strain RS112. The procedure:
as §1, §2
Strain RS112 has the following genotype: [drawing 2]
Values for the intrachromosomal recombination system between deletion alleles of his3 are designated as SCC. Also strain RS112 contained heteroallelic mutations in ade2 so that the frequency of interchromosomal gene conversion (ICC) between heteroalleles in a diploid was determined. ICC was measured as recombination between the heteroalleles ade2-40 and ade2-101 by selecting for ADE+. Values obtained are given to compare the performance of the two systems.
The frequencies for ICC are given in events per 10^5 survivals, and the frequencies for SCC are given in events per 10^4 survivals. It has to be noted that for sister chromatid recombination in mammalian cells the increase even with potent carcinogens is usually less than ten fold and also slight increases have been taken as positive results. For instance an increase in frequency of two fold has been taken to be significant; see a publication by Rudiger et al. entitled "Metabolites of diethylstilbestrol induce sister chromatid exchange in human cultured fibroblasts." published in Nature 281:392-394).

The next series relates to rats. As to conditions: cited from earlier work.
Series [6] deals with strain RS112. The series can be described thus: plating efficiency after MBC treatment. Format: cell-based, Saccharomyces cerevisiae. To be noted: 100 μg/ml, 5 to 7 hours at 30° C. The procedure:
(§7) The applicant has reproduced the method published in the aforementioned paper by Fabre et al. Mol. Gen. Genet. 195:139143 (1984) to obtain mostly G1 (stationary) and G2 arrested cells by using Methyl-Benzimidazole-Carbamate (MBC) to arrest the cells in G2 : Strain used for the experiment was RS112, the genotype of which is given below: [drawing 1] Media were the same as described at another part of the specification. Stationary cells were obtained by incubation of cells in liquid YPD at 30° C. for 48 hours. Stationary cells were more than 85% in G1. To obtain cells arrested in G2 the cells were incubated in YPD containing the fungicide methyl benzimidazol-2-yl carbamate (MBC) (stock solution 10 mg/ml) at a concentration of 100 μg/ml at a cell density of 10^7 cells/ml for 5 to 7 hours at 30° C. […] Log phase cells were obtained by incubation of the cells in YEPD for the same time period without MBC. Log phase cultures contained cells in all stages. The cells were irradiated with UV light at a dose of 0-40 J/m2 and cells were held at G1, log or G2 for another two hours to allow repair of the damage in the respective stage. The cells were than collected by centrifugation and washed twice, plated for survivals onto SC medium, for determination of interchromosomal conversion events onto SC-Ade and for determination of SCC onto SC-His.

Series [7] deals with strain RS112. The series can be described thus: G2 arrest of yeast cells by MBC. It is filed as cell-based, Saccharomyces cerevisiae. As to conditions: 100 μg/ml, 5 to 7 hours at 30° C. The procedure: as §7
Series [8] deals with mammalian cells. As to conditions: cited from earlier work.
For another series, the system named is mice. As to conditions: cited from earlier work.
The test system of another series is rat liver. As to conditions: in vivo; cited from earlier work.
In series [9] the test system is mammalian cells. As to conditions: cited from earlier work. The source holds these as a separate data set.

As to `C=O` [Formaldehyde], the viability at 17 h was found to be 97% in [1] (yeast strain rs112, 0.015 mg/ml); 53% in [1] (yeast strain rs112, 0.03 mg/ml); 4.2% in [1] (yeast strain rs112, 0.05 mg/ml); 2.2% in series [1] (yeast strain rs112, 0.07 mg/ml). In addition, the fold induction in series [2] is around 20. Further, the “SCC result in words” value in [3] is “test positive”. Moreover, the “SCC/10^4 cells” value in [3] (0.015 mg/ml) is 3.8 /10^4 cells; in series [3] (0.03 mg/ml), 7.3 /10^4 cells; in [3] (0.05 mg/ml), 29.5 /10^4 cells; in series [3] (0.07 mg/ml), 40.0 /10^4 cells. Moreover, in the series on Salmonella typhimurium, the “Ames Assay result” value was “negative”. Besides, the values for the carcinogenicity result (in series [4]; in the series with rats) were “known carcinogen” and “causes nasal cancer in rats”, respectively. For the same compound, the tumor promotion result in series [4] (proposed) was “proposed to act as tumor promoter”. In addition, the “ICC result in words” value in series [5] is listed as “induces ICC”. The “ICC/10^5 cells” value in series [5] (0.015 mg/ml) is 2.5 /10^5 cells; in series [5] (0.03 mg/ml) it was 2.1 /10^5 cells; in series [5] (0.05 mg/ml) it was 5.4 /10^5 cells; in series [5] (0.07 mg/ml), 7.1 /10^5 cells.

Turning to `COC(=O)Nc1nc2ccccc2[nH]1` [MBC, methyl benzimidazol-2-yl carbamate], the plating efficiency result in the series with strain RS112 [6] is given as “never decreased”. For the same compound, in the series with strain RS112 [7], the “cells showing characteristic G2 arrest” value is “more than 90%”.

`C=CCc1ccc2c(c1)OCO2` [Safrole]: the “chromosomal aberration assay result” value with mammalian cells [8] is reported as “negative”. Moreover, the carcinogenicity entry in the series on mice was “produces liver cancer in mice and rats”; in series [4] it was “known carcinogens”; with rats it was “produces liver cancer in mice and rats”. Further, the viability at 17 h was 112% in series [1] (yeast strain rs112, 0.05 %); 95% in [1] (yeast strain rs112, 0.1 %); 76% in [1] (yeast strain rs112, 0.2 %); 4.6% in [1] (yeast strain rs112, 0.4 %). In addition, the “rat liver foci assay result” value with rat liver is on record as “negative”. For the same compound, the “SCC/10^4 cells” value in series [3] (0.05 %) is 0.94 /10^4 cells; in series [3] (0.1 %), 1.22 /10^4 cells; in series [3] (0.2 %), 2.4 /10^4 cells; in series [3] (0.4 %), 14.1 /10^4 cells. Besides, the “Ames Assay result” value with Salmonella typhimurium is “negative”. Besides, the “ICC/10^5 cells” value in series [5] (0.05 %) is given as 1.07 /10^5 cells; in series [5] (0.1 %), 0.59 /10^5 cells; in series [5] (0.2 %), 0.82 /10^5 cells; in [5] (0.4 %), 1.36 /10^5 cells. In addition, the SCE assay result with mammalian cells [9] is recorded as “negative”.
